Entries after “also recorded” stand apart in the source; their conditions may differ. Read-outs that look alike come from different tables or passages of the source.
System: IL-1β induced NO production in normal human articular chondrocytes
Test: IL-1β induced NO production in cultured chondrocytes (NO2 accumulation, Griess reaction)
Format: cell-based
Description: Chondrocytes were isolated from the cartilage by collagenase digestion and maintained in continuous monolayer cultures in DMEM containing 10% fetal bovine serum (FBS). Cell viability after chondrocyte isolation by collagenase digestion of normal cartilage was >95%. This level was maintained for at least 96 hrs post mortem. […] Experiments reported were performed with primary or first passage cells.
Chondrocytes were plated at 40,000 cells/well in 96-well plates in the presence of 1 % FBS. After 48 h, the medium was changed, and the cells were stimulated with IL-1β (Sigma) at a concentration of 5 ng/ml for 24 h. NO production was detected as NO2 accumulation in the culture supernatants by the Griess reaction as described elsewhere (Heval et al., (1994) Methods Enzymol. 233:250). IL-6 in the culture supernatants was measured by ELISA (R&D Systems, Minneapolis, MN) in accordance with the supplier's protocol.

Question: For `CC(=O)N[C@H]1C(O)O[C@H](CO)[C@@H](O)[C@@H]1O` (stereo partly shown) [GlcNAc, N-acetylglucosamine], which “NO production triggered by IL-1β” value is on record?
Answer: Its value is “suppressed NO production; also recorded: stronger inhibition of NO production than GA”.

Question: What about the “concentration of maximal inhibitory effect on NO production” value of the same compound?
Answer: Its value is 20 mM.

Question: And the “concentrations not effective in inhibiting NO production” value?
Answer: The value was “lower than 1 mM”.

Question: What about the IC50 (Homo sapiens, Chondrocyte, IL-1β 5 ng/ml for 24 h, GlcNAc vs GA p < 0.01, read-out: IC50 (inhibition of NO production)) of the same compound?
Answer: Its IC50 is 4.1 ± 1.3 mM.

Question: What about the “inhibitory activity on IL-1β induced NO production” value (concentration of 10 mM) of the same compound?
Answer: Its value is “demonstrated inhibitory activity”.

Question: And the “NO production triggered by IL-1β” value (listed as GIcNAc)?
Answer: Its value is “measurably inhibited NO production in the lower millimolar range”.

Question: What about the “concentrations not effective in inhibiting NO production” value (listed as GIcNAc) of the same compound?
Answer: Its value is “below 1 mM”.
